Values of other authors as cited in patent US7128928B2, “Ophthalmic formulation with novel gum composition” (Pharmacia Corporation, priority 2002, dated 2006).

Tested on: infective gram-positive bacteria

CC(=O)NC[C@H]1CN(c2ccc(N3CCOCC3)c(F)c2)C(=O)O1 [linezolid]
MIC90: about 4 μg/ml
